Assay results from US8048889B2, “3,4-disubstituted coumarin and quinolone compounds” (XTL Biopharmaceuticals Ltd., priority 2005, dated 2011).

Columns and labels:
Huh-Luc-Neo cells = assay: CellTiter-Glo Cell Viability Assay; format: cell-based, human; details: for Toxicity % Inhibition at 50 uM (2 doses): inhibition of cell viability at 50 uM, conditions as in Replicon RNA Assay; for Toxicity % Inhibition at 100 um (1 dose): inhibition of cell viability at 100 um, conditions as in Replicon Luciferase Assay (48 h)
Description: (§1) Day 2 Reagent Preparation and Luciferase Assay: The Bright-Glo Luciferase Assay Buffer (Promega) is thawed and equilibrated to room temperature prior to use. The lyophilized Bright-Glo Luciferase Assay Substrate is equilibrated to room temperature prior to use. 10 ml of Bright-Glo Luciferase Assay Buffer is transferred to 1 vial of Bright-Glo Luciferase Assay Substrate bottle and mixed by gently with a Vortex. 100 ul of Bright-Glo Luciferase Assay reagent (Bright-Glo Luciferase Assay Buffer+Bright-Glo Luciferase Assay Substrate Mixture) is added to each well. The well contents are mixed for 5 min. on an orbital shaker at room temperature to induce cell lysis and the luminescence is then measured using a luminometer. The data is analyzed and IC50s are determined using GraphPad Prism 4 software. Hits validated in the Replicon Luciferase assay have IC50s<8.0 μM and show<30% inhibition of Cell Viability at a compound concentration of 100 μM (Cell Titer Glow Assay, cell viability assay conditions identical to HCV Replicon Luciferase Assay conditions).
(§2) Day 3, Quantitative PCR Based Measurement of HCV RNA (Taqman Assay): Quantitative PCR analysis to measure HCV RNA expression from cDNA synthesized on Day 2 is performed using the ABI 9700 HT Sequence Detection System (Applied Biosystems) as previously described (Lohman et al, Science 285, 110-113, 1999). The data is analyzed and IC50s are determined using GraphPad Prism 4 software. Hits validated in the Replicon RNA Assay have IC50s<8.0 μM and show <30% inhibition of Cell Viability at a compound concentration of 50 μM (Cell Titer Glow Assay, cell viability assay conditions identical to HCV Replicon RNA Assay conditions).
(§3) Day 0, Cell Seeding and Compound Treatment: Huh-Luc-Neo Cells are seeded at 25,000/well in an opaque-walled 96 plate with Growth Medium (DMEM phenol red free+PS+2 mM glutamine; 100 ul/well). The compounds to be tested for inhibition of cell viability are added to the experimental wells (10 μl/well at 10× assay concentration) and the cells are then incubated (5% CO2, 37° C.) for 48 h.
Day 2, Reagent Preparation and Assay: The CellTiter-Glo Buffer is thawed and equilibrated to room temperature prior to use. The lyophilized CellTiter-Glo Substrate is equilibrated to room temperature prior to use. 10 ml of CeliTiter-Glo Buffer is transferred to 1 vial of CellTiter-Glo Substrate and mixed by gently with a Vortex. 100 μl of CellTiter-Glo Assay reagent (CellTiter-Glo Buffer+CellTiter-Glo Substrate Mixture) is added to each well. The well contents are mixed for 5 min. on an orbital shaker at room temperature to induce cell lysis and the luminescence is then measured using a luminometer.

[1] = test system: HCV Replicon (HCV IRES driven luciferase reporter in Huh-Luc-Neo cells); assay: HCV Replicon Luciferase Assay; format: cell-based; details: Hepatitis C virus, 48 h, no unit in table, hit threshold in μM
Description: (§4) The identification of inhibitors of HCV replication and/or proliferation has been facilitated by the development of a cell based system to study HCV replication and assay for HCV inhibitors. Inhibition of HCV replication may be performed using the HCV Replicon Assay developed in the laboratories of Bartenschlager (Lohman et al, Science 285, 110-113, 1999) and Rice (Blight et al, Science 290, 1972-1974, 2000). The assay is performed using the Huh-Luc-Neo cell line (Lohman et al, Science 285, 110-113, 1999). Huh-Luc-Neo cells are a human hepatoma cell line (Huh-7) stably expressing a bi-cistronic subgenomic replicon containing the HCV IRES in which the structural proteins of HCV had been deleted and replaced by a construct containing sequences coding for the firefly luciferase reporter gene, the neomycin selectable marker and the EMCV IRES to direct expression of a truncated HCV genome expressing the […] NS3, NS4A, NS4B, NS5A, and NS5B. HCV targets through which inhibitors could act to inhibit replication include the NS3 protease, the helicase/ATPase, NS5A, the NS5B- RNA dependent RNA polymerase, and the HCV IRES.
(§5) Expression of HCV IRES driven luciferase reporter activity and HCV RNA is measured to obtain indirect and direct measures of replication of HCV RNA respectively. Inhibitors of HCV replication and/or proliferation are determined by initially identifying molecules that inhibit expression of the HCV IRES driven luciferase reporter in this HCV Replicon Luciferase Assay. Cell viability assays and control cell based luciferase assays are then run on hits identified in the HCV Replicon Luciferase Assay to eliminate cytoxic compounds and non-specific compounds which act by inhibiting the luciferase enzyme.
as §3, with “0” for “0,”, “μl/well).” for “ul/well).”, “tested” for “tested for inhibition of cell viability”
as §1

[2] = test system: HCV Replicon (HCV RNA in Huh-Luc-Neo cells); assay: HCV Replicon RNA Assay (Taqman); format: cell-based, Hepatitis C virus; details: Hepatitis C virus, compound added day 0 and day 1, no unit in table, hit threshold in μM
Description: as §4, §5
as §3, with “μl/well).” for “ul/well).”, “tested” for “tested for inhibition of cell viability”, “C.).” for “C.) for 48 h.”
Day 1, Media Change and Compound Treatment: 24 hours after the initial compound treatment the cell culture media is aspirated from the wells and fresh Growth Medium is added (DMEM phenol red free+PS+2 mM glutamine; 100 μl/well). The compounds to be tested are then added to the appropriate experimental wells (10 μl/well at 10 × assay concentration) and the cells are then incubated (5% CO2, 37° C.) for an additional 24 hrs.
Day 2, RNA Isolation and cDNA Synthesis: The cells are washed with 1× Phosphate Buffered Saline (PBS) once.
as §2

SMILES | Toxicity % Inhibition at 50 uM (2 doses) (Huh-Luc-Neo cells) | Toxicity % Inhibition at 100 um (1 dose) (Huh-Luc-Neo cells) | IC50 [1] | IC50 [2]
COc1ccc(Nc2c(/C=N/c3ccc(C)cc3)c(=O)oc3ccccc23)cc1 [VQ_36472] | 6.5% | 5.9% | 0.03 µM | 0.85 µM
COc1ccc(/N=C/c2c(Nc3ccc(OC)cc3)c3ccccc3oc2=O)cc1 [VQ_36473] | 10.7% | 4.3% | 0.02 µM | 1.71 µM
COc1ccc(Nc2c(/C=N/c3cc(Cl)cc(Cl)c3)c(=O)oc3ccccc23)cc1 [VQ_36594] | 13.7% | 9.1% | 0.74 µM | > 30 µM
